Measured values from patent publication US8741897B2, “Glucocorticoid mimetics, methods of making them, pharmaceutical compositions and uses thereof” (Boehringer Ingelheim Pharmaceuticals Inc., priority 2003, dated 2014).

Columns and labels:
[1] = system: glucocorticoid receptor function; assay: one or more of the above assays (GR binding and glucocorticoid receptor cell assays: aromatase, IL-6, TAT, MMTV-Luc, IL-8, ICAM-Luc); assay type: cell-based; conditions: assay not specified per compound
[2] = target: T1, human glucocorticoid receptor (GR) complex (Homo sapiens, UniProt P04150); assay: Glucocorticoid receptor competitive binding assay (fluorescence polarization, TAMRA-labeled dexamethasone probe); conditions: compounds of Formula (IA)
T1 construct: made in house; host or cells: insect expression system (baculovirus lysate)
T1 sequence (P04150 1-777): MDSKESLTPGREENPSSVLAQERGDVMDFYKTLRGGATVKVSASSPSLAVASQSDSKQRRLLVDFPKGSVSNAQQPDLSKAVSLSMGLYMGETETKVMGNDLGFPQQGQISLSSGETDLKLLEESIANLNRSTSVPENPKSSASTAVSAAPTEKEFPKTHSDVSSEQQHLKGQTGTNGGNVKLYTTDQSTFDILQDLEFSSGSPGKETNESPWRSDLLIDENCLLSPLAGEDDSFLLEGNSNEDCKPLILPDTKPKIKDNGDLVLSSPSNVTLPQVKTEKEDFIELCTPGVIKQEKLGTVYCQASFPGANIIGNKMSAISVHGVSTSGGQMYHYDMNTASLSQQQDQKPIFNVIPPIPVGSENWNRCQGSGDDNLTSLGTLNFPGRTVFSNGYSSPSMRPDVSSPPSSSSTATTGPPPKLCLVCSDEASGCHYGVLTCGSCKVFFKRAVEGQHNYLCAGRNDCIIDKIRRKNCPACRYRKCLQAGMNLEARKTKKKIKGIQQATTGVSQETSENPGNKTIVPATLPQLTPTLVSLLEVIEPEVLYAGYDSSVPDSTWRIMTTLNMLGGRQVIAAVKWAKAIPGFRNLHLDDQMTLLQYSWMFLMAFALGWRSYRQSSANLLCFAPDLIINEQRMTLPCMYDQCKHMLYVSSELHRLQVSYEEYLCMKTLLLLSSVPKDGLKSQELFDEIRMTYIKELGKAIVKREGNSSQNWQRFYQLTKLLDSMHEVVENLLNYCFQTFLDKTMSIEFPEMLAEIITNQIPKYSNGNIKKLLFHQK
Procedure, shortened: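 Fluorescence-polarization competition against 15 nM TAMRA-dexamethasone (stock added to the mix) for human GR complex from baculovirus lysate diluted 1:170. Buffer: 10 mM TES, 50 mM KCl, 20 mM Na2MoO4, 1.5 mM EDTA, 0.04% CHAPS, 10% glycerol, 1 mM DTT, pH 7.4. IC50 from 4-parameter logistic fit.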

Row | Structure (SMILES) | activity in the GR binding assay [2] | activity as agonists of the glucocorticoid receptor function in one or more of the above assays [1]
1 | CN(C)C(=O)c1ccc2[nH]c(CC(O)(CC(C)(C)c3cc(Br)cc4c3OCC4)C(F)(F)F)cc2c1 (stereo not shown) [2-[4-(5-Bromo-2,3-dihydrobenzofuran-7-yl)-2-hydroxy-4-methyl-2-trifluoromethylpentyl]-1H-indole-5-carboxylic acid dimethylamide] | potent activity | potent agonists
2 | COc1ccc(OC)c(C(C)(C)CC(O)(Cc2cc3ccncc3[nH]2)C(F)(F)F)c1 (stereo not shown) [4-(2,5-Dimethoxyphenyl)-1,1,1-trifluoro-4-methyl-2-(1H-pyrrolo[2,3-c]pyridin-2-ylmethyl)pentan-2-ol] | potent activity | potent agonists
3 | CC(C)(CC(O)(Cc1cc2cnccc2[nH]1)C(F)(F)F)c1cc(Cl)cc2c1OCC2 (stereo not shown) [4-(5-Chloro-2,3-dihydrobenzofuran-7-yl)-1,1,1-trifluoro-4-methyl-2-(1H-pyrrolo[3,2-c]pyridin-2-ylmethyl)pentan-2-ol] | potent activity | potent agonists
4 | COc1ccc(F)cc1C(C)(C)CC(O)(Cc1cc(Cl)nc(Cl)c1C#N)C(F)(F)F (stereo not shown) [2,6-Dichloro-4-[4-(5-fluoro-2-methoxyphenyl)-2-hydroxy-4-methyl-2-trifluoromethylpentyl]nicotinonitrile] | potent activity | potent agonists
5 | CC(C)(CC(O)(Cc1cc2ccccc2[nH]1)C(F)(F)F)c1ccccn1 (stereo not shown) [1,1,1-Trifluoro-2-(1H-indol-2-ylmethyl)-4-methyl-4-pyridin-2-ylpentan-2-ol] | potent activity | potent agonists
6 | COC(=O)CNC(=O)c1ccc2[nH]c(CC(O)(CC(C)(C)c3cc(F)ccc3OC)C(F)(F)F)cc2c1 (stereo not shown) [({2-[4-(5-Fluoro-2-methoxyphenyl)-2-hydroxy-4-methyl-2-trifluoromethylpentyl]-1H-indole-5-carbonyl}amino)acetic acid methyl ester] | potent activity | potent agonists
7 | CC(C)c1ccc(O)c(C(C)(C)CC(O)(Cc2[nH]c3ccccc3c2C#N)C(F)(F)F)c1 (stereo not shown) [2-[2-Hydroxy-4-(2-hydroxy-5-isopropylphenyl)-4-methyl-2-trifluoromethylpentyl]-1H-indole-3-carbonitrile] | potent activity | potent agonists
8 | COc1ccc(F)cc1C(C)(C)CC(O)(Cc1cc2cc(NC(C)=O)ccc2[nH]1)C(F)(F)F (stereo not shown) [N-{2-[4-(5-Fluoro-2-methoxyphenyl)-2-hydroxy-4-methyl-2-trifluoromethylpentyl]-1H-indol-5-yl}acetamide] | potent activity | potent agonists
9 | COc1ccc(C(C)(C)C)cc1C(C)(C)CC(O)(Cc1[nH]c2ccccc2c1C#N)C(F)(F)F (stereo not shown) [2-[4-(5-tert-Butyl-2-methoxyphenyl)-2-hydroxy-4-methyl-2-trifluoromethylpentyl]-1H-indole-3-carbonitrile] | potent activity | potent agonists
10 | COc1ccc(F)cc1C(C)(C)CC(O)(Cc1[nH]c2ccncc2c1CN(C)C)C(F)(F)F (stereo not shown) [2-(3-Dimethylaminomethyl-1H-pyrrolo[3,2-c]pyridin-2-ylmethyl)-1,1,1-trifluoro-4-(5-fluoro-2-methoxyphenyl)-4-methylpentan-2-ol] | potent activity | potent agonists
11 | COc1ccc(F)cc1C(C)(C)CC(O)(Cc1cc2cc(C(=O)NCC(N)=O)ccc2[nH]1)C(F)(F)F (stereo not shown) [2-[4-(5-Fluoro-2-methoxyphenyl)-2-hydroxy-4-methyl-2-trifluoromethylpentyl]-1H-indole-5-carboxylic acid carbamoylmethylamide] | potent activity | potent agonists

The next lines start with results.

Row | activity in the GR binding assay [2] | Structure (SMILES) | activity as agonists of the glucocorticoid receptor function in one or more of the above assays [1]
12 | potent activity | Cc1ccc(F)cc1C(C)(C)CC(O)(Cc1ccnc2ccccc12)C(F)(F)F (stereo not shown) [1,1,1-Trifluoro-4-(5-fluoro-2-methylphenyl)-4-methyl-2-quinolin-4-ylmethylpentan-2-ol] | potent agonists
13 | potent activity | Cc1cc(C(C)(C)CC(O)(Cc2cc3ccccc3[nH]2)C(F)(F)F)ccc1F (stereo not shown) [1,1,1-Trifluoro-4-(4-fluoro-3-methylphenyl)-2-(1H-indol-2-ylmethyl)-4-methylpentan-2-ol] | potent agonists
14 | potent activity | Cc1ccc(C(C)(C)CC(O)(Cc2cc3ccccc3[nH]2)C(F)(F)F)cc1F (stereo not shown) [1,1,1-Trifluoro-4-(3-fluoro-4-methylphenyl)-2-(1H-indol-2-ylmethyl)-4-methylpentan-2-ol] | potent agonists
15 | potent activity | CC(C)(CC(O)(Cc1cc2ccc(C#N)cc2[nH]1)C(F)(F)F)c1cc(F)ccc1O (stereo not shown) [2-[4-(5-Fluoro-2-hydroxyphenyl)-2-hydroxy-4-methyl-2-trifluoromethylpentyl]-1H-indole-6-carbonitrile] | potent agonists
16 | potent activity | COc1ccc(F)cc1C(C)(C)CC(O)(Cc1cc2ccncc2s1)C(F)(F)F (stereo not shown) [1,1,1 -Trifluoro-4-(5-fluoro-2-methoxyphenyl)-4-methyl-2-thieno[2,3-c]pyridin-2-ylmethylpentan-2-ol] | potent agonists
17 | potent activity | Cc1cc(CC(O)(CC(C)(C)c2ccc(F)cc2O)C(F)(F)F)cc(C)n1 (stereo not shown) [2-[3-(2,6-Dimethylpyridin-4-ylmethyl)-4,4,4-trifluoro-3-hydroxy-1,1-dimethylbutyl]-5-fluorophenol] | potent agonists
18 | potent activity | CC(C)(CC(O)(Cc1ccnc2ccccc12)C(F)(F)F)c1ccccc1F (stereo not shown) [1,1,1-Trifluoro-4-(2-fluorophenyl)-4-methyl-2-quinolin-4-ylmethylpentan-2-ol] | potent agonists
19 | potent activity | Cc1ccc(F)cc1C(C)(C)CC(O)(Cc1cc2nc(C#N)ccc2[nH]1)C(F)(F)F (stereo not shown) [2-[4-(5-Fluoro-2-methylphenyl)-2-hydroxy-4-methyl-2-trifluoromethylpentyl]-1H-pyrrolo[3,2-b]pyridine-5-carbonitrile] | potent agonists
20 | potent activity | COc1cc(F)ccc1C(C)(C)CC(O)(Cc1cc(C)nc(C)c1)C(F)(F)F (stereo not shown) [2-(2,6-Dimethylpyridin-4-ylmethyl)-1,1,1-trifluoro-4-(4-fluoro-2-methoxyphenyl)-4-methylpentan-2-ol] | potent agonists
